Substitutions are numbered along the chain they refer to. pEC50: −log10 of the molar value. “And” between values parts separate entries of the source, which are not always exact repeats. Equal values may be shown once. Read-outs that look alike come from different tables or passages of the source.
Key:
human 5-HT1A = target: T1, human 5-HT1A (Homo sapiens, UniProt P08908); assay: cell-based
T1 sequence (P08908 1-422): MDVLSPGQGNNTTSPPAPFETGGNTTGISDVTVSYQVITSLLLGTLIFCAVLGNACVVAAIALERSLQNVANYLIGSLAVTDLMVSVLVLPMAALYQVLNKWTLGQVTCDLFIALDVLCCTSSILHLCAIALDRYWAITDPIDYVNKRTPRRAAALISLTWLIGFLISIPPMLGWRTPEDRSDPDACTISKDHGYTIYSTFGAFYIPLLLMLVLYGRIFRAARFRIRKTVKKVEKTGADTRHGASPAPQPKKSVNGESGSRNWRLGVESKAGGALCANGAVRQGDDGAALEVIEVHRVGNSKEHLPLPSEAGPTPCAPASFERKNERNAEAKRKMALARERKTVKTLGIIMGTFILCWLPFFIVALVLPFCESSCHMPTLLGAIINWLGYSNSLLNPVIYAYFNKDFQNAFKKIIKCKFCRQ

[1] = Microsomal stability, human liver microsomes; assay type: in vitro ADME; conditions: versus the DMT analogs
Protocol: Microsomal incubations were carried out in 96-well plates in 5 aliquots of 30 μL each (one for each time point). Liver microsomal incubation medium comprised of phosphate buffer (100 mM, pH 7.4), MgCl2 (3.3 mM), NADPH (3 mM), glucose-6-phosphate (5.3 mM), glucose-6 phosphate dehydrogenase (0.67 units/ml) with 0.42 mg of liver microsomal protein per ml. In the control reactions the NADPH-cofactor system was substituted with phosphate buffer. Test compounds (2 μM, final solvent concentration 1.6%) were incubated with microsomes at 37° C., shaking at 100 rpm. Each reaction was performed in duplicates. Five time points over 90 minutes were analyzed. The reactions were stopped by adding 5 volumes of methanol containing internal standard to incubation aliquots, followed by protein sedimentation by centrifuging at 5500 rpm for 4 minutes. Supernatants were analyzed using the HPLC system coupled with tandem mass spectrometer. The elimination constant (kel), half-life (t1/2) and intrinsic clearance (Clint) were determined in plot of […] versus time, using linear regression analysis.

5-HT2A [2] = target: T2, 5-HT2A (Homo sapiens, UniProt P28223); assay: cell-based
5-HT1A [3] = target: T3, 5-HT1A (Homo sapiens, UniProt P08908); assay: cell-based
5-HT1A [4] = target: T3, 5-HT1A; assay: BRET signaling assay: 5-HT1A-mediated activation of heterotrimeric Gi1 (TRUPATH, HEK293-T)
5-HT1A A365N = target: T4, 5-HT1A A365N (Homo sapiens, UniProt P08908, A365N); assay: Gi1 BRET at mutant 5-HT1A A365N; assay type: cell-based; conditions: 5-HT1A A365N^6.55; for EC50: EC50 (nM), Gi1 BRET
T4 construct: expressed in transfected cells; host or cells: HEK293-T
T4 sequence (P08908 1-422 A365N): T1 sequence (P08908 1-422) with A365N

5-HT2A V366N = target: T5, 5-HT2A V366N (Homo sapiens, UniProt P28223, V366N); assay: Gq BRET at mutant 5-HT2A V366N; assay type: cell-based; conditions: mutant vs wildtype 5-HT2A
T5 construct: expressed in transfected cells; host or cells: HEK293-T

5-HT2A [5] = target: T2, 5-HT2A; conditions: for Efficacy as %5HT 5-HT2A BRET Gq: Table 6, commercial ligands
[6] = Mouse plasma protein binding; assay type: in vitro ADME
[7] = Human plasma protein binding; assay type: in vitro ADME

T2 sequence (P28223 whole entry): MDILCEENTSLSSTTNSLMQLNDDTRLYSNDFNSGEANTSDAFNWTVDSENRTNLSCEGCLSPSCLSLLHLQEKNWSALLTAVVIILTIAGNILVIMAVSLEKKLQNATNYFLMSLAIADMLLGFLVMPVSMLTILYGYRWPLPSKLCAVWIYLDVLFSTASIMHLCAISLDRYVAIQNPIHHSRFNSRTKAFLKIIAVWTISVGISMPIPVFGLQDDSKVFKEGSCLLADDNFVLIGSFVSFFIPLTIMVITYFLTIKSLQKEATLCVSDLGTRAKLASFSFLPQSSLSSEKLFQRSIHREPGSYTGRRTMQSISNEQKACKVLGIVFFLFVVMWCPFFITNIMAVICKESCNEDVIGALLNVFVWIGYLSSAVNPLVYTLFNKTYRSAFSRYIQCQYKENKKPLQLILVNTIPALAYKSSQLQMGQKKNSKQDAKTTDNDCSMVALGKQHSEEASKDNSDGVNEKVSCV
T5 sequence (P28223 whole entry V366N): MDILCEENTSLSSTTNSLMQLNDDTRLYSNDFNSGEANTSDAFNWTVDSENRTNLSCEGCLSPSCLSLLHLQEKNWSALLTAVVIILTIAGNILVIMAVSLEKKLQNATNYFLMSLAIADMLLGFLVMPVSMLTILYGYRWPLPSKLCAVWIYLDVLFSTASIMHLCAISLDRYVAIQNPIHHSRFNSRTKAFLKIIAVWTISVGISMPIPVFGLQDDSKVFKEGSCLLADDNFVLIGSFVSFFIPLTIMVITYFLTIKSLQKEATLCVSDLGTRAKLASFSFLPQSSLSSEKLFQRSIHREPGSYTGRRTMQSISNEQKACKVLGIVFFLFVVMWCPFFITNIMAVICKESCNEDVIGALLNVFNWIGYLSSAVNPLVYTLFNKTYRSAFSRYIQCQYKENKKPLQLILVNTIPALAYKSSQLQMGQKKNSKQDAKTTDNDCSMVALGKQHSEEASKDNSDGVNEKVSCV

C=CCN(C)CCc1c[nH]c2ccc(OC)c(F)c12 [Compound 34, N-(2-(4-fluoro-5-methoxy-1H-indol-3-yl)ethyl)-N-methylprop-2-en-1-amine]
pEC50 (human 5-HT1A): 8.59 | microsomal stability in human microsomes [1]: greater stability in human microsomes versus the DMT analogs | pEC50 (5-HT2A [2]): 6.81 | pEC50 (5-HT1A [3]): 8.08

CN(C)CCc1c[nH]c2ccc(O)c(F)c12 [Compound 40, 3-(2-(dimethylamino)ethyl)-4-fluoro-1H-indol-5-ol]
pEC50 (human 5-HT1A): 9.60 | EC50 (5-HT1A [4]; EC50 (nM), Gi1 BRET, 5-HT1A WT): 1.13 nM | pEC50 (5-HT2A [2]): 8.13 | EC50 (5-HT2A [2]; EC50 (nM), Gq BRET, 5-HT2A WT): 7.46 nM | EC50 (5-HT1A A365N): 5.68 nM | pEC50 (5-HT1A [3]): 8.95

CSc1ccc2[nH]cc(CCN(C)C)c2c1 [Compound 67, N,N-dimethyl-2-(5-(methylthio)-1H-indol-3-yl)ethan-1-amine]
pEC50 (human 5-HT1A): 8.70 | EC50 (5-HT1A [4]; EC50 (nM), Gi1 BRET, 5-HT1A WT): 11.7 nM | pEC50 (5-HT2A [2]): 7.52 | EC50 (5-HT2A [2]; EC50 (nM), Gq BRET, 5-HT2A WT): 30.1 nM | EC50 (5-HT1A A365N): 30.5 nM | pEC50 (5-HT1A A365N; pEC50, Gi1 BRET): 7.52 | pEC50 (5-HT1A [3]): 7.93

CSc1ccc2[nH]cc(CCN3CCCC3)c2c1 [Compound 69, 5-(methylthio)-3-(2-(pyrrolidin-1-yl)ethyl)-1H-indole]
pEC50 (human 5-HT1A): 9.29 and 9.30 | EC50 (5-HT1A [4]; EC50 (nM), Gi1 BRET, 5-HT1A WT): 1.05 nM | pEC50 (5-HT2A [2]): 6.76 | EC50 (5-HT2A [2]; EC50 (nM), Gq BRET, 5-HT2A WT): 175 nM | EC50 (5-HT1A A365N): 5.08 nM | pEC50 (5-HT1A [3]): 8.98

CCN(CC)C(=O)[C@@H]1C=C2c3cccc4[nH]cc(c34)C[C@H]2N(C)C1 [LSD, reference compound]
effect of 5-HT2A V366N mutation on potency and efficacy (5-HT2A V366N): increase in signaling efficacy | Efficacy as %5HT 5-HT2A BRET Gq (5-HT2A [5]): 82.4 %5HT

COc1cc(CCN)cc(OC)c1OC [Mescaline, reference compound]
efficacy at 5-HT2A (5-HT2A [5]): ~100 % of that of serotonin | relative potency at 5-HT1A and 5-HT2A (5-HT2A [5]; BRET, FIG. 33A): more potent at 5-HT2A | Efficacy as %5HT 5-HT2A BRET Gq (5-HT2A [5]): 92.6 %5HT | EC50 (5-HT1A [4]; EC50 (nM) 5-HT1A BRET Gi1, Table 6, commercial ligands): 19600 nM | Efficacy as %5HT 5-HT1A BRET Gi1 (5-HT1A [4]; Table 6, commercial ligands): 42.0 %5HT | EC50 (5-HT2A [2]; EC50 (nM) 5-HT2A BRET Gq, Table 6, commercial ligands): 2400 nM

CC(=O)CC(c1ccccc1)c1c(O)c2ccccc2oc1=O (stereo not shown) [Warfarin]
% Recovery [6]: 90.9% | % Unbound [6]: 6.4% | fu [6]: 0.064 | % Compound remaining at 4 h ([6]; 4 h): 103.3% | % Recovery [7]: 108.1% | % Compound remaining at 4 h ([7]; 4 h): 108.8%

From patent publication US20260034119A1, “5-METHOXY-N,N-[…][…], THEIR […], AND METHODS FOR TREATMENT OF NEUROLOGICAL, […], AND SUBSTANCE USE DISORDERS” (priority 2023, published 2026)
